According to US20170319562A1, “Compositions and Methods for Extended Therapy with Aminopyridines” (Acorda Therapeutics, Inc., priority 2009, published 2017):
Values joined by “and” are separate entries in the source; they are usually repeats but may differ in a detail not shown here. Equal entries are not always repeated.

Key:
[1] = two formulations of IR tablets; cited from earlier work
[2] = Bioavailability and pharmacokinetics in healthy volunteers; settings: 10 mg oral solution
[3] = test system: patients with multiple sclerosis; experiment: MS-F203 Phase 3 double-blind placebo-controlled study; format: in vivo, human; settings: 10 mg b.i.d.
From the text: A three stage, stepwise analysis based on this variable was used to establish a positive outcome on the primary endpoint and to establish its clinical meaningfulness with respect to overall walking ability. […] The second step was to register a significant improvement in MSWS-12 score for the Timed-Walk Responders when compared to Timed-Walk Non-Responders. The third step was to confirm maintenance of effect by testing whether those patients who responded to 4-aminopyridine-SR on the T25FW would still register a significant improvement in walking speed relative to placebo-treated patients at the last observed double-blind visit (i.e., the change from baseline in walking speed at the double-blind endpoint). FIG. 47 depicts walking speed improvements found in the MS-F203 study: In FIG. 47, the two graphs show the average change in walking speed from baseline at each of the four visits over the 3 months of double blind treatment. […] There was no indication of a loss of efficacy over, e.g., 12 weeks, 13 weeks, 14 weeks, 3 months of treatment in this study. The MS-F203 study established that the improvement in walking speed seen in treated Timed Walk Responders was maintained over, e.g., 12 weeks, 13 weeks, 14 weeks, 3 months of treatment. The enxtention data herein established that periods greater than those of this study were able to be effeicaious, thus as a durable and chronic therapy. […]

[4] = test system: patients with multiple sclerosis; experiment: MS-F204 Phase 3 double-blind placebo-controlled study
Description: Each of two Phase 3 studies (MS-F203 and MS-F204) was a parallel group, randomized, double-blind study comparing 4-aminopyridine-SR 10 mg b.i.d. with placebo. […] The 12-item Multiple Sclerosis Walking Scale and the Subject Global Impression and Clinician Global Impression were used to validate the clinical meaningfulness of the Timed-Walk response criterion. Secondary efficacy variables included walking speed, Lower Extremity Manual Muscle Test (LEMMT) score and the Ashworth spasticity score, the latter two averaged across eight and six lower extremity muscle groups, respectively. Duration of double-blind treatment on which efficacy was based was 14 weeks in the first study and 8 weeks in the second study. A two-week single blind placebo run-in period preceded the double-blind period.
In the MS-F204 study, the primary efficacy variable was also Responder status, based on consistent improvement in walking speed on the T25FW. A Timed-Walk Responder was defined as a patient with a faster walking speed for at least three of the first four double-blind visits as compared to the maximum walking speed for any of the pre-treatment visits and the post-treatment visit.
The secondary efficacy variable was average change from baseline in LEMMT score during the double-blind period, comparing 4-aminopyridine-treated Timed-Walk Responders and Non-Responders separately against the placebo-treated group. Other measures, the MSWS-12, SGI, CGI and Ashworth score, were included only for the purposes of a pooled analysis and comparison with the results of the other two trials.
This study in this Example was a 39 center, double-blind trial in patients with definite multiple sclerosis of any course type. Participants were randomized to 9 weeks of treatment with 4-aminopyridine (10 mg twice daily; n=120) or placebo (n=119). Response was defined as consistent improvement on the Timed 25-Foot Walk, with percentage of Timed Walk Responders (TWR) in each treatment group as the primary outcome. The last on-treatment visit provided data from 8-12 h post-dose, to examine maintenance of effect.
Study Design. This was a randomized, double-blind, placebo-controlled trial, as depicted in FIG. 14. Patients underwent screening without receiving any study medication and eligible patients returned one week later (Visit 0, see FIG. 14). Patients then entered a two-week, single-blind, placebo run-in period; Visit 1 occurred at the end of the first week of placebo run-in and Visit 2 at the end of the second week. Patients were instructed to take one blinded tablet (supplied in appropriate quantities at each clinic visit) every 12 hours during the treatment phase.
At Visit 2, patients were randomized equally to one of two treatment groups, sustained release 4-aminopyridine (4-aminopyridine-SR, 10 mg twice daily) or placebo, using a predetermined, computer-generated randomization schedule, blocked and stratified by treatment-site and pre-numbered treatment kits. Independent statistical, packaging and distribution contractors were used to maintain the blind for all other personnel.
Following randomization, patients returned every two weeks for evaluation at Visits 3-6. The patients were then instructed to return in one week for Visit 7 and to arrange the timing of their last dose of study medication such that the clinic visit would allow for assessments to be made between 10 and 12 hours after this last dose was taken. Following Visit 7, patients began a two-week period of no treatment, returning for follow-up assessments at Visit 8.

Q: With `Nc1ccncc1` [4-aminopyridine] as the molecule, how does the absolute bioavailability [1] read?
A: 95%

Q: What about the Cmax [2] of the same molecule?
A: 42.7 ng/mL

Q: And the “improvement in walking speed across the treatment period” value ([3]; Timed Walk Non-responders)?
A: approximately 7%

Q: And the “average increase in walking speed over the treatment period compared to baseline” value ([3]; Timed Walk Responders)?
A: approximately 25%

Q: What about the “Mantel-Haenszel Odds Ratio for Timed Walk Response vs placebo” value ([4]; 10 mg b.i.d.) of the same molecule?
A: 8.14

Q: What about the “Timed-Walk Responder rate” value ([4]; 10 mg b.i.d.) of the same molecule?
A: 42.9%

Q: And the “plasma concentration below which there is a marked reduction in walking speed improvement” value ([4]; FIG. 27)?
A: below 13 ng/mL

Q: What about the “plasma concentration below which there is a reduction in walking speed improvement” value ([4]; FIG. 27) of the same molecule?
A: below 15 ng/mL

Q: And the “average change from baseline in walking speed (Visits 3-6)” value ([4]; Timed Walk Non-Responders)?
A: 0.12 ft/sec

Q: And the “average improvement in walking speed from baseline, double-blind efficacy period (Visits 3-6)” value ([4]; Timed Walk Non-responders, 10 mg b.i.d.)?
A: 6.0%

Q: What about the “average change from baseline in walking speed (Visits 3-6)” value ([4]; Timed Walk Responders) of the same molecule?
A: 0.51 ft/sec

Q: And the “improvement from baseline walking speed at Visit 7, first evaluation (last on-treatment visit)” value ([4]; Timed Walk Responders)?
A: 25.7%

Q: And the “average improvement in walking speed from baseline, double-blind efficacy period (Visits 3-6)” value ([4]; Timed Walk Responders, 10 mg b.i.d.)?
A: 24.7% and 25%

Q: And the “mean improvement in walking speed at Visit 7” value (“mean improvement” below) ([4]; Timed Walk Responders, 9-10 h post dose)?
A: 25.5%

Q: What about the “mean improvement” value ([4]; Timed Walk Responders, 10-11 h post dose) of the same molecule?
A: 25.3%

Q: And the “mean improvement” value ([4]; Timed Walk Responders, 11-12 h post dose)?
A: 20.1% and 20%

Q: What about the “reduction of average plasma concentration at the first assessment at Visit 7” value ([4]; human, in vivo, 10 mg b.i.d.) of the same molecule?
A: approximately 25%
